16 compounds from ChEMBL document CHEMBL2331129, “Development and characterization of monomeric N-end rule inhibitors through in vitro model substrates” (J Med Chem, 2013) can be followed below.

For assay [1], the species on record is Oryctolagus cuniculus. In words: Inhibition of UBR protein in rabbit reticulocyte lysates assessed as inhibition of RGS4 substrate degradation at 2 mM after 30 to 60 mins in presence of bestatin.
Assay [2] is filed under the species Oryctolagus cuniculus. As to the kind of experiment: Inhibition of UBR protein in rabbit reticulocyte lysates assessed as inhibition of Arg-nsP4 substrate degradation at 6 mM by SDS-PAGE in presence of bestatin.
Assay [3] is filed under the species Oryctolagus cuniculus. Conditions: at 2 mM.
Description: Inhibition of UBR protein in rabbit reticulocyte lysates assessed as inhibition of Tyr-nsP4 substrate degradation at 2 mM by immunoblotting analysis in presence of bestatin
The species entered for assay [4] is Oryctolagus cuniculus. Particulars: at 2 mM. The source holds these as a separate data set.
Description: Inhibition of UBR protein in rabbit reticulocyte lysates assessed as inhibition of Tyr-nsP4 substrate degradation at 2 mM
Assay [5] is described as follows: Inhibition of UBR protein in rabbit reticulocyte lysates assessed as inhibition of Arg-nsP4 substrate degradation by in vitro synthesis/degradation assay. Further details: species or system Oryctolagus cuniculus.
Assay [6] is filed under the species Oryctolagus cuniculus. As to the kind of experiment: Inhibition of UBR protein in rabbit reticulocyte lysates assessed as inhibition of Arg-nsP4 substrate degradation at 2 mM by SDS-PAGE in presence of bestatin.
Assay [7] is filed under the species Oryctolagus cuniculus. As to the kind of experiment: Inhibition of UBR protein in rabbit reticulocyte lysates assessed as inhibition of Arg-nsP4 substrate degradation at 2 mM after 30 mins by Western blot analysis.
Assay [8] is filed under the species Oryctolagus cuniculus. As to the kind of experiment: Inhibition of UBR protein in rabbit reticulocyte lysates assessed as inhibition of Arg-nsP4 substrate degradation at 1 mM after 30 mins by Western blot analysis.
Assay [9] is filed under the species Oryctolagus cuniculus.
Description: Inhibition of UBR protein in rabbit reticulocyte lysates assessed as inhibition of Tyr-nsP4 substrate degradation measuring substrate half life at 2 mM
The nature of assay [10]: Inhibition of UBR protein in rabbit reticulocyte lysates assessed as inhibition of Tyr-nsP4 substrate degradation by in vitro synthesis/degradation assay. Further details: species or system Oryctolagus cuniculus.

Activity calls are given as the source filed them. The calls are words filed in the database; no cut-off is given here.

Consider `C[C@H](NC(=O)[C@H](N)CCCNC(=N)N)C(=O)O`, for which the inhibition result in the assay filed under Oryctolagus cuniculus [1] and in the assay filed under Oryctolagus cuniculus [2] was “inactive” throughout.

Take `C[C@H](NC[C@@H](N)Cc1ccccc1)C(=O)O`: in the assay listed under Oryctolagus cuniculus [3], the inhibition result was “inactive”.

Regarding `N[C@@H](Cc1ccccc1)C(=O)NCCC(=O)O`, the inhibition result in the assay filed under Oryctolagus cuniculus [4] and in the assay listed under Oryctolagus cuniculus [3] was “Active” each time.

On to `N=C(N)NCCC[C@@H](N)C(=O)N[C@@H](Cc1ccccc1)C(=O)O`, for which the inhibition entry in the assay listed under Oryctolagus cuniculus [1] was “inactive”.

Turning to `C[C@H](NC(=O)[C@@H](N)CCCN=C(N)N)C(=O)O`, in [5], the IC50 is 1200 µM. Moreover, the inhibition entry in the assay listed under Oryctolagus cuniculus [1], in the assay filed under Oryctolagus cuniculus [6] and in the assay filed under Oryctolagus cuniculus [7] was “Active” throughout.

Consider `CC(=O)N[C@@H](Cc1ccccc1)C(=O)N[C@@H](C)C(=O)O`, for which the inhibition result in the assay filed under Oryctolagus cuniculus [3] was “inactive”.

In the case of `N[C@@H](Cc1ccccc1)C(=O)NCCCP(=O)(O)O`, the inhibition entry in the assay listed under Oryctolagus cuniculus [4] and in the assay filed under Oryctolagus cuniculus [3] was “Active” throughout.

With `CC(N)Cc1ccc(Cl)cc1` (configuration not stated), the results for the IC50 in [5] and in assay [10] were 935 µM and 1170 µM, respectively. For the same compound, the inhibition result in the assay filed under Oryctolagus cuniculus [8] and in the assay listed under Oryctolagus cuniculus [3] was “Active” throughout. This compound displayed a T1/2 in the assay filed under Oryctolagus cuniculus [9] of 1.05 h.

Consider `CC(=O)N[C@@H](Cc1ccccc1)C(N)=O`, for which the inhibition entry in the assay filed under Oryctolagus cuniculus [4] and in the assay listed under Oryctolagus cuniculus [3] was “inactive” throughout.

As for `NC(=O)[C@@H](N)Cc1ccccc1`, the inhibition result in the assay listed under Oryctolagus cuniculus [4] was “Active”. The inhibition entry in the assay filed under Oryctolagus cuniculus [3] was “inactive”.

`CCCCCNC(=O)[C@@H](N)Cc1ccccc1`: the inhibition result in the assay listed under Oryctolagus cuniculus [4] and in the assay listed under Oryctolagus cuniculus [3] was “Active” throughout.

Regarding `CC(N)Cc1ccccc1` (configuration not stated), in the assay filed under Oryctolagus cuniculus [3], the inhibition result was “Active”.

Regarding `N[C@@H](Cc1ccccc1)C(=O)NCCCCC(=O)O`, the inhibition entry in the assay filed under Oryctolagus cuniculus [4] and in the assay filed under Oryctolagus cuniculus [3] was “Active” each time.

For `NC(N)=NCCC[C@H](N)C(=O)N[C@@H](Cc1ccccc1)C(=O)O`, the inhibition result in the assay filed under Oryctolagus cuniculus [1] was “Active”.

Consider `CC(=O)N[C@@H](Cc1ccccc1)C(=O)O`, for which the inhibition entry in the assay listed under Oryctolagus cuniculus [4] and in the assay filed under Oryctolagus cuniculus [3] was “inactive” in each case.

`COC(=O)CCCCNC(=O)[C@@H](N)Cc1ccccc1`: the inhibition entry in the assay filed under Oryctolagus cuniculus [4] and in the assay listed under Oryctolagus cuniculus [3] was “Active” in each case.
